For eight molecules, IC50 and Ki results are on record in ChEMBL document CHEMBL3751787, “Novel chromenedione derivatives displaying inhibition of protein tyrosine phosphatase 1B (PTP1B) from Flemingia philippinensis” (Bioorg Med Chem Lett, 2016).

Test [1] deals with T1, Tyrosine-protein phosphatase non-receptor type 1 (Homo sapiens, UniProt P18031).
T1 sequence (P18031 whole entry): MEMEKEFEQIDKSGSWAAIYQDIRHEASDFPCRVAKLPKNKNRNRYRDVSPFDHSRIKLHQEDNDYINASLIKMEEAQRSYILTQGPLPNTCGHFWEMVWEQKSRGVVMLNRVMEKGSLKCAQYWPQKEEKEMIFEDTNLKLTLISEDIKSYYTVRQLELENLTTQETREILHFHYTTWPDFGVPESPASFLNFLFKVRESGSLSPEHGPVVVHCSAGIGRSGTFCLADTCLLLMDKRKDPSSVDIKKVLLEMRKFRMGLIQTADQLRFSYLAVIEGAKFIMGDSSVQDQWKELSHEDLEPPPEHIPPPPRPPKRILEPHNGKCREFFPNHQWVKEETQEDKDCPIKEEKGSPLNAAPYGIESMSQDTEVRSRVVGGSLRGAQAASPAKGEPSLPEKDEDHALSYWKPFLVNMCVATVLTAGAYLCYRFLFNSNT
Briefly: Inhibition of human recombinant PTP1B using p-nitrophenyl phosphate as substrate by spectrophotometric analysis.

For test [2], the target named is T1, Tyrosine-protein phosphatase non-receptor type 1. Description: Non-competitive inhibition of human recombinant PTP1B using p-nitrophenyl phosphate as substrate by spectrophotometry based Lineweaver-Burk plot.
Test [3] shares this target. Briefly: Competitive inhibition of human recombinant PTP1B using p-nitrophenyl phosphate as substrate by spectrophotometry based Lineweaver-Burk plot.

Molecules are shown by their SMILES.

For the molecule `CC(C)=CCc1c(O)c(CC=C(C)C)c2occ(-c3ccc(O)c(O)c3)c(=O)c2c1O`, the IC50 in test [1] turned out to be 2.4 µM. Besides, the inhibition constant Ki in test [2] came out at 2.5 µM.
Turning to `CC(C)=CCc1c(O)c(CC=C(C)C)c2occ(-c3ccc(O)cc3)c(=O)c2c1O`, the IC50 in test [1] worked out at 9.3 µM. The inhibition constant Ki in test [2] came to 9.6 µM.
On to `CC(C)=CCc1c2c(c3occ(-c4ccc(O)cc4)c(=O)c3c1O)C=CC(C)(C)O2` [OSAJIN], for which the concentration for half-maximal inhibition (IC50) in test [1] turned out to be 23.6 µM. For the same molecule, the Ki in test [2] came out at 29.9 µM.
For the molecule `COc1cc(-c2coc3c(CC=C(C)C)c(O)c(CC=C(C)C)c(O)c3c2=O)ccc1O` [FLEMINGSIN], the 50% inhibitory concentration (IC50) in test [1] came to 17.4 µM. The Ki in test [2] came to 19.2 µM.
`COc1ccc(CCC(=O)C2=C(O)C(CC=C(C)C)=C3OC(C)(C)C=CC3(CC=C(C)C)C2=O)cc1` (stereo unspecified): in test [1], the IC50 stood at 6.5 µM. Further, in test [3], the Ki came to 3.4 µM.
For `COc1ccc(CCC(=O)C2=C(O)C(CC=C(C)C)=C3OC(C)(C)C=CC3(CC=C(C)C)C2=O)cc1O` (stereo unspecified), in test [1], the IC50 was 29.4 µM. Moreover, the inhibitory constant (Ki) in test [3] was 17.6 µM.
On to `COc1ccc(CC/C(O)=C2\C(=O)C(CC=C(C)C)=C3OC(C)(C)C=CC3(CC=C(C)C)C2=O)cc1O` (stereo unspecified), for which the IC50 in test [1] was 20.2 µM. Moreover, the Ki in test [3] stood at 12.3 µM.
`CC(C)=CCc1c2c(c(O)c3c(=O)c(-c4ccc(O)c(O)c4)coc13)C=CC(C)(C)O2` [AURICULASIN]: the IC50 in test [1] is 3.6 µM. Moreover, the Ki in test [2] came out at 4.4 µM.

For orientation: IC50 means the concentration that inhibits the measured activity by half. What is called Ki is the equilibrium dissociation constant of an inhibitor or competing ligand from its target.
